Structures can show the parent of a compound that is named as a salt.
How the values were obtained:
[1] = test system: thrombocyte aggregation in platelet-rich plasma; experiment: Antithrombotic effect: collagen-induced thrombocyte aggregation in platelet-rich plasma (Born and Cross); assay type: cell-based; settings: human platelet-rich plasma, 10 minutes preincubation at 37° C., read-out: Inhibition of platelet aggregation EC50
Procedure: 2. Antithrombotic Effect Method: The thrombocyte aggregation was measured in platelet-rich plasma from healthy test subjects using the Born and Cross method (J. Physiol. 170: 397 (1964)). In order to inhibit coaggulation the blood was mixed with 3.14% sodium citrate in a ratio by volume of 1:10. Collagen-induced aggregation: The decrease in the optical density of the platelet suspension was measured photometrically and recorded after the addition of the aggregation-initiating substance. The speed of aggregation was concluded from the angle of inclination of the density curve. The point on the curve at which there was maximum transmittance was used to calculate the optical density. The quantity of collagen used was as little as possible but sufficient to give an irreversible reaction curve. Standard commercial collagen produced by Hormonchemie of Munich was used. Before the addition of collagen the plasma was incubated with the substance for 10 minutes at 37° C. From the measurements obtained, an EC50 was determined graphically, relating to a 50% change in the optical density in terms of inhibiting aggregation.

Human Thrombocytes = experiment: Fibrinogen Binding to Human Thrombocytes (I125-fibrinogen, gel-filtered platelets); settings: inhibition of I125-fibrinogen binding to gel-filtered human platelets, ADP, 20 minutes, ambient temperature; read-out: Fibrinogen Binding test IC50
Procedure: 1. Fibrinogen Binding to Human Thrombocytes Blood obtained by puncture of an antecubital vein was anticoagulated with trisodium citrate (final concentration: 13 mM) and centrifuged for 10 minutes at 170 *g. The supernatant platelet-rich plasma was placed on a Sepharose 2B column (Pharmacia) and eluted with a solution of 90 mM common salt, 14 mM trisodium citrate, 5 mM glucose and 50 mM tris(hydroxymethyl)aminomethane, adjusted to pH 7.4. The gel-filtered platelets (GFP) appearing in front of the plasma proteins were used for the binding tests. 50 μl of a 60 mM calcium chloride solution, 50 μl of a 0.6 mM adenosine diphosphate solution, 100 μl of substance solution or solvent and 50 μl of fibrinogen solution (containing 3 μg I125-fibrinogen) were added to 750 μl of GFP and incubated for 20 minutes at ambient temperature. The non-specific binding was measured in the presence of 3 mg/ml of cold fibrinogen. 900 μl of the incubate were carefully pipetted onto 250 μl of silicon oil (AP 38: AR 20, 1:2 v/v, Wacker Chemie) in Eppendorf vessels and centrifuged for 2 minutes at 10,000 *g. The aqueous supernatant and some of the oil were removed, the tip of the vessel with the platelet pellet was cut off and the quantity of bound fibrinogen was measured in a gamma-counter. The concentration of substance which inhibited fibrinogen binding by 50% was calculated from a series of concentrations and given as the IC50.

EC50 [1] [nM] | IC50 (Human Thrombocytes) [nM] | Compound
1500 | 45 | N=C(N)c1ccc(-c2ccc(N3CCN(CCC(=O)O)C3=O)cc2)cc1 [1(1), 1-(4'-amidino-4-biphenylyl)-3-(2-carboxy-ethyl)-imidazolidin-2-one]
320 | 96 | N=C(N)c1ccc(-c2ccc(N3CC(=O)N(CCC(=O)O)C3=O)cc2)cc1 [1(2), 1-(4'-amidino-4-biphenylyl)-3-(2-carboxy-ethyl)-imidazolidin-2,4-dione]
1700 | 190 | N=C(N)c1ccc(-c2ccc(-n3ccn(CCC(=O)O)c3=O)cc2)cc1 [1(3), 1-(4'-amidino-4-biphenylyl)-3-(2-carboxy-ethyl)-3H-imidazol-2-one]
> 100000 | 3900 | N=C(N)c1ccc(-c2ccc(N3CCCN(CCC(=O)O)C3=O)cc2)cc1 [1(4), 1-(4'-amidino-4-biphenylyl)-3-(2-carboxy-ethyl)-3,4,5,6-tetrahydro-1H-pyrimidin-2-one]
32000 | 6100 | N=C(N)c1ccc(-c2ccc(N3CCCN(CC(=O)O)C3=O)cc2)cc1 [1(5), 1-(4'-amidino-4-biphenylyl)-3-carboxymethyl-3,4,5,6-tetrahydro-1H-pyrimidin-2-one]
70 | 17 | N=C(N)c1ccc(N2CCN(c3ccc(CCC(=O)O)cc3)C2=O)cc1 [1(6), 1-(4-amidino-phenyl)-3-[4-(2-carboxy-ethyl)-phenyl]-imidazolidin-2-one]
10000 | 2400 | N=C(N)c1ccc(N2CCCN(c3ccc(CCC(=O)O)cc3)C2=O)cc1 [1(7), 1-(4-amidino-phenyl)-3-[4-(2-carboxy-ethyl)-phenyl]-3,4,5,6-tetrahydro-1H-pyrimidin-2-one]
620 | 31 | N=C(N)c1ccc(-c2ccc(N3CCN(CCC(=O)O)S3(=O)=O)cc2)cc1 [1(21), 2-(4'-amidino-4-biphenylyl)-5-(2-carboxy-ethyl)-3,4-dihydro-2H,5H-1,2,5-thiadiazol-1,1-dioxide]
1100 | 470 | N=C(N)c1ccc(N2CCC(N3CCN(CCC(=O)O)C3=O)CC2)cc1 [1(24), 1-[1-(4-amidino-phenyl)-4-piperidinyl]-3-(2-carboxy-ethyl)-imidazolidin-2-one]
390 | 52 | N=C(N)c1ccc(-c2ccc(N3CCN(CCC(=O)O)C3=O)nn2)cc1 [1(28), 1-[6-(4-amidino-phenyl)-3-pyridazinyl]-3-(2-carboxy-ethyl)-imidazolidin-2-one]
100 | 37 | Cc1cc(C(=N)N)ccc1N1CCN(c2ccc(CCC(=O)O)cc2)C1=O [1(36), 1-(4-amidino-2-methyl-phenyl)-3-[4-(2-carboxy-ethyl)-phenyl]-imidazolidin-2-one]
40 | 11 | N=C(N)c1ccc(N2CCN(C3CCC(CCC(=O)O)CC3)C2=O)cc1 (stereo not drawn) [1(46), 1-(4-amidino-phenyl)-3-[4-(2-carboxy-ethyl)cyclohexyl]-imidazolidin-2-one]
1100 | 210 | N=C(N)c1ccc(N2CCN(c3ccc(SCC(=O)O)cc3)C2=O)cc1 [1(48), 1-(4-amidino-phenyl)-3-(4-carboxymethylthiophenyl)-imidazolidin-2-one]
140 | 26 | N=C(N)c1ccc(N2CCN(c3ccc([S+]([O-])CC(=O)O)cc3)C2=O)cc1 (stereo not drawn) [1(49), 1-(4-amidino-phenyl)-3-(4-carboxymethylsulphinylphenyl)-imidazolidin-2-one]
290 | 45 | N=C(N)c1ccc(N2CCN(c3ccc(S(=O)(=O)CC(=O)O)cc3)C2=O)cc1 [1(50), 1-(4-amidino-phenyl)-3-(4-carboxymethylsulphonylphenyl)-imidazolidin-2-one]
13000 | 3600 | CC(C)(CC(=O)O)c1ccc(N2CCN(c3ccc(C(=N)N)cc3)C2=O)cc1 [1(51), 1-(4-amidino-phenyl)-3-[4-(3-carboxy-2-methyl-2-propyl)-phenyl]-imidazolidin-2-one]
60000 | 860 | N=C(N)c1ccc(N2CCN(CCc3ccc(C(=O)O)cc3)C2=O)cc1 [1(55), 1-(4-amidino-phenyl)-3-[2-(4-carboxyphenyl)-ethyl]-imidazolidin-2-one]
350 | 150 | NCc1ccc(N2CCN(c3ccc(CCC(=O)O)cc3)C2=O)cc1 [1(59)]
40 | 13 | N=C(N)c1ccc(N2CC(=O)N(c3ccc(CCC(=O)O)cc3)C2=O)cc1 [1(62), 1-(4-amidino-phenyl)-3-[4-(2-carboxy-ethyl)-phenyl]-imidazolidin-2,4-dione]
280 |  | Cc1nn(-c2ccc(CCC(=O)O)cc2)c(=O)n1-c1ccc(C(=N)N)cc1 [1(137), 4-(4-amidino-phenyl)-2-[4-(2-carboxy-ethyl)-phenyl]-5-methyl-4H-1,2,4-triazol-3-one]
600 |  | Cc1cn(-c2ccc(CCC(=O)O)cc2)c(=O)n1-c1ccc(C(=N)N)cc1 [1(144), 3-(4-amidino-phenyl)-1-[4-(2-carboxy-ethyl)-phenyl]-4-methyl-3H-imidazol-2-one]
280 |  | COC(=O)CSc1ccc(N2CCN(c3ccc(C(=N)N)cc3)C2=O)cc1 [2(45), 1-(4-amidino-phenyl)-3-(4-methoxycarbonyl-methylthio-phenyl)-imidazolidin-2-one]
630 |  | COC(=O)CCc1ccc(-n2nc(C)n(-c3ccc(C(=N)N)cc3)c2=O)cc1 [2(117), 4-(4-amidino-phenyl)-2-[4-(2-methoxycarbonyl-ethyl)-phenyl]-5-methyl-4H-1,2,4-triazol-3-one hydrochloride]
1200 |  | COC(=O)CCc1ccc(-n2cc(C)n(-c3ccc(C(=N)N)cc3)c2=O)cc1 [2(122), 3-(4-amidino-phenyl)-1-[4-(2-methoxycarbonyl-ethyl)-phenyl]-4-methyl-3H-imidazol-2-one hydrochloride-hydrate]
130 |  | COC(=O)CCc1ccc(-n2ncn(-c3ccc(C(=N)N)cc3)c2=O)cc1 [2(124), 4-(amidino-phenyl)-2-[4-(2-methoxycarbonyl-ethyl)-phenyl]-4H-1,2,4-triazol-3-one hydrochloride]
 | 5700 | COC(=O)CCc1ccc(-n2cnn(-c3ccc(C(N)=NC(=O)OC)cc3)c2=O)cc1 [5(11), 2-(4-methoxycarbonylamidino-phenyl)-3-[4-(2-methoxycarbonyl-ethyl)-phenyl]-4H-1,2,4-triazol-3-one]
 | 3700 | COC(=O)CCC1CCC(N2CCN(c3ccc(C(=N)NC(=O)OC)cc3)C2=O)CC1 (stereo not drawn) [5(12), 1-(4-methoxycarbonylamidino-phenyl)-3-[4-(2-methoxycarbonyl-ethyl)-cyclohexyl]-imidazolidin-2-one]
210 |  | Cc1nn(-c2ccc(C(=N)N)cc2)c(=O)n1-c1ccc(CCC(=O)OC(C)C)cc1 [11(11), 2-(4-amidino-phenyl)-4-[4-(2-isopropyloxycarbonyl-ethyl)-phenyl]-5-methyl-4H-1,2,4-triazol-3-one hydrochloride]
240 |  | COC(=O)CS(=O)(=O)c1ccc(N2CCN(c3ccc(C(=N)N)cc3)C2=O)cc1 [Example 18, 1-(4-Amidino-phenyl)-3-(methoxycarbonylmethylsulphonyl-phenyl)-imidazolidin-2-one]
